The conditions of assay [1]: in vivo; cited from earlier work.
The target of assay [2] is T1, CDK9/CycT1 (Homo sapiens, UniProt P50750).
T1 construct: Recombinant full-length His-tagged human CDK9 and CycT1; His; purchased Invitrogen PV4131; host or cells: insect cells
As to the kind of experiment: CDK9/CycT1 high ATP kinase assay (TR-FRET, Method 1b). The format is biochemical. The note with it: 2 mM ATP. On the procedure:
1b. CDK9/CycT1 High ATP Kinase Assay
CDK9/CycT1-inhibitory activity of compounds of the present invention at a high ATP concentration after preincubation of enzyme and test compounds was quantified employing the CDK9/CycT1 TR-FRET assay as described in the following paragraphs.
Recombinant full-length His-tagged human CDK9 and CycT1, expressed in insect cells and purified by Ni-NTA affinity chromatography, were purchase from Invitrogen (Cat. No PV4131). As substrate for the kinase reaction biotinylated peptide biotin-Ttds-YISPLKSPYKISEG (C-terminus in amid form) was used which can be purchased e.g. from the company JERINI peptide technologies (Berlin, Germany).
For the assay 50 nl of a 100 fold concentrated solution of the test compound in DMSO was pipetted into a black low volume 384 well microtiter plate (Greiner Bio-One, Frickenhausen, Germany), 2 μl of a solution of CDK9/CycT1 in aqueous assay buffer [50 mM Tris/HCl pH 8.0, 10 mM MgCl2, 1.0 mM dithiothreitol, 0.1 mM sodium ortho-vanadate, 0.01% (v/v) Nonidet-P40 (Sigma)] were added and the mixture was incubated for 15 min at 22° C. to allow pre-binding of the test compounds to the enzyme before the start of the kinase reaction. […] The concentration of CDK9/CycT1 was adjusted depending of the activity of the enzyme lot and was chosen appropriate to have the assay in the linear range, typical concentrations were in the range of 0.5 μg/mL. The reaction was stopped by the addition of 5 μl of a solution of TR-FRET detection reagents (0.2 μM streptavidine-XL665 [Cisbio Bioassays, Codolet, France] and 1 nM anti-RB(pSer807/pSer811)-antibody from BD Pharmingen [#558389] and 1.2 nM LANCE EU-W1024 labeled anti-mouse IgG antibody [Perkin-Elmer, product no. AD0077]) in an aqueous EDTA-solution (100 mM EDTA, 0.2% (w/v) bovine serum albumin in 100 mM HEPES pH 7.5).
The resulting mixture was incubated 1 h at 22° C. to allow the formation of complex between the phosphorylated biotinylated peptide and the detection reagents. Subsequently the amount of phosphorylated substrate was evaluated by measurement of the resonance energy transfer from the Eu-chelate to the streptavidine-XL. Therefore, the fluorescence emissions at 620 nm and 665 nm after excitation at 350 nm was measured in a HTRF reader, e.g. a Rubystar (BMG Labtechnologies, Offenburg, Germany) or a Viewlux (Perkin-Elmer). The ratio of the emissions at 665 nm and at […] was taken as the measure for the amount of phosphorylated substrate. The data were normalised (enzyme reaction without inhibitor=0% inhibition, all other assay components but no enzym=100% inhibition).
For orientation: In TR-FRET formats the signal depends on donor and acceptor labels being close together.

Assay [3] deals with T2, CDK2/CycE (Homo sapiens, UniProt P24941).
T2 construct: GST; purchased ProQinase GmbH (Freiburg, Germany); host or cells: insect cells (Sf9)
As to the kind of experiment: CDK2/CycE high ATP kinase assay (TR-FRET, Method 2b). The format is biochemical. The note with it: 2 mM ATP. On the procedure:
2b. CDK2/CycE High ATP Kinase Assay:
CDK2/CycE-inhibitory activity of compounds of the present invention at 2 mM adenosine-tri-phosphate (ATP) was quantified employing the CDK2/CycE TR-FRET (TR-FRET=Time Resolved Fluorescence Resonance Energy Transfer) assay as described in the following paragraphs.
Recombinant fusion proteins of GST and human CDK2 and of GST and human CycE, expressed in insect cells (Sf9) and purified by Glutathion-Sepharose affinity chromatography, were purchase from ProQinase GmbH (Freiburg, Germany). As substrate for the kinase reaction biotinylated peptide biotin-Ttds-YISPLKSPYKISEG (C-terminus in amid form) was used which can be purchased e.g. from the company JERINI peptide technologies (Berlin, Germany).
For the assay 50 nl of a 100 fold concentrated solution of the test compound in DMSO was pipetted into a black low volume 384 well microtiter plate (Greiner Bio-One, Frickenhausen, Germany), 2 μl of a solution of CDK2/CycE in aqueous assay buffer [50 mM Tris/HCl pH 8.0, 10 mM MgCl2, 1.0 mM dithiothreitol, 0.1 mM sodium ortho-vanadate, 0.01% (v/v) Nonidet-P40 (Sigma)] were added and the mixture was incubated for 15 min at 22° C. to allow pre-binding of the test compounds to the enzyme before the start of the kinase reaction. Then the kinase reaction was started by the addition of 3 μl of a solution ATP (3.33 mM=>final conc. in the 5 μl assay volume is 2 mM) and substrate (1.25 μM=>final conc. in the 5 μl assay volume is 0.75 μM) in assay buffer and the resulting mixture was incubated for a reaction time of 25 min at 22° C. The concentration of CDK2/CycE was adjusted depending of the activity of the enzyme lot and was chosen appropriate to have the assay in the linear range, typical concentrations were in the range of 15 ng/ml. The reaction was stopped by the addition of 5 μl of a solution of TR-FRET detection reagents (0.2 μM streptavidine-XL665 [Cisbio Bioassays, Codolet, France] and 1 nM anti-RB(pSer807/pSer811)-antibody from BD Pharmingen [#558389] and 1.2 nM LANCE EU-W1024 labeled anti-mouse IgG antibody [Perkin-Elmer, product no. AD0077, as an alternative a Terbium-cryptate-labeled anti-mouse IgG antibody from Cisbio Bioassays can be used]) in an aqueous EDTA-solution (100 mM EDTA, 0.2% (w/v) bovine serum albumin in 100 mM HEPES pH 7.5).
The resulting mixture was incubated 1 h at 22° C. to allow the formation of complex between the phosphorylated biotinylated peptide and the detection reagents. Subsequently the amount of phosphorylated substrate was evaluated by measurement of the resonance energy transfer from the Eu-chelate to the streptavidine-XL. Therefore, the fluorescence emissions at 620 nm and 665 nm after excitation at 350 nm were measured in a TR-FRET reader, e.g. a Rubystar (BMG Labtechnologies, Offenburg, Germany) or a Viewlux (Perkin-Elmer). The ratio of the emissions at 665 nm and at […] was taken as the measure for the amount of phosphorylated substrate. The data were normalised (enzyme reaction without inhibitor=0% inhibition, all other assay components but no enzym=100% inhibition).

Assay [4] concerns the target T3, human PTEFb (CDK9/Cyclin T1) (Homo sapiens, UniProt P50750).
T3 construct: purchased ProQinase, Freiburg, Germany
Kind of assay: Surface Plasmon Resonance PTEFb (Method 8). The format is binding. The note with it: 37° C., experimental parameters E.

SMILES strings stand for the structures. Marks after values point to notes of the source that are not given here.

This is an account of results in patent publication US10214542B2, “Modified macrocyclic compounds” (BAYER PHARMA AKTIENGESELLSCHAFT, priority 2015, dated 2019).

As usually defined, the IC50 is the concentration at which inhibition is half-maximal. Broadly, the koff is a measure of how fast the partners let go of each other.

T1 sequence (P50750 whole entry): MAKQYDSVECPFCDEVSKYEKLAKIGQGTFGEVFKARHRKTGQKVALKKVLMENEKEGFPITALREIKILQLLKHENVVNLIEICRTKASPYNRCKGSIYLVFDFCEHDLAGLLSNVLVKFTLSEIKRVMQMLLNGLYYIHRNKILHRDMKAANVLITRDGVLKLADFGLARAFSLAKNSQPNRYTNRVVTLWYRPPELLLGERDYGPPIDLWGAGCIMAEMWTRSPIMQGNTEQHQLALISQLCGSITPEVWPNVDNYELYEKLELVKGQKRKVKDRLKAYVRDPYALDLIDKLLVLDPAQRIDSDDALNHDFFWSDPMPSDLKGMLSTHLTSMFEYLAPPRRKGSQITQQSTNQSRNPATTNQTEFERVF
T1 sequence (O60563 whole entry partner): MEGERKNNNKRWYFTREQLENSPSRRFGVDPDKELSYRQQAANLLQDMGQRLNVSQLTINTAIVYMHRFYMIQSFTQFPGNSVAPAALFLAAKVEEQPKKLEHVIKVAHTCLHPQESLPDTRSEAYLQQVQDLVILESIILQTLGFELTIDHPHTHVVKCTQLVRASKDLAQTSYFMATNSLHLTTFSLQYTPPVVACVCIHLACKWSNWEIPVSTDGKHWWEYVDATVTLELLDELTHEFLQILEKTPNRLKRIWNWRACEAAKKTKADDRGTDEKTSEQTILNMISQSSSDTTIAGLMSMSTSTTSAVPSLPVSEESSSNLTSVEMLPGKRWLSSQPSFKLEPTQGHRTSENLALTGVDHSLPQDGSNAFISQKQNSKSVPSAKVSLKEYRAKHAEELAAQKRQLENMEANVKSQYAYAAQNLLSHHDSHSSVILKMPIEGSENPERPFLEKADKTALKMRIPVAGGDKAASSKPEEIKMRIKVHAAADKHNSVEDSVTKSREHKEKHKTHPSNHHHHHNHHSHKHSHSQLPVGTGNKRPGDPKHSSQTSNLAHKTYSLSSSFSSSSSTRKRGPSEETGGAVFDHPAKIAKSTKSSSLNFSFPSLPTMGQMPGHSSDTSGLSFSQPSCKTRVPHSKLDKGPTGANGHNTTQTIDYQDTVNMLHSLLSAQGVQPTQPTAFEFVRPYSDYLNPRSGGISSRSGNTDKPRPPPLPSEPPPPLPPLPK
T3 sequence (P50750 whole entry): as the sequence (P50750 whole entry) above
T3 sequence (O60563 whole entry partner): as the sequence (O60563 whole entry partner) above

As for `C[N+]1(C)[C@@H]2C[C@@H](OC(=O)C(O)(c3cccs3)c3cccs3)C[C@H]1[C@@H]1O[C@@H]12` [tiotropium], the “duration of protection against bronchospasms” value in assay [1] is on record as “more than 6 hours”.

In the case of `CS(=N)(=O)Cc1cc2cc(c1)Nc1ncc(F)c(n1)-c1ccc(F)cc1OCCCCN2` (racemic) [Example 25, (rac)-16,20-difluoro-9-[(S-methylsulfonimidoyl)methyl]-3,4,5,6-tetrahydro-2H,12H-13,17-(azeno)-11,7-(metheno)-1,6,12,14-benzoxatriazacyclononadecine], the IC50 in assay [2] (Method 1b) was 3.3 nM; in assay [3], 742 nM. Further, the “Selectivity high ATP CDK9 over high ATP CDK2: IC50 (high ATP CDK2)/IC50 (high ATP CDK9)” value in assay [2] (Methods 1b and 2b) came out at 224. The Target resident time in assay [4] (1/koff) is listed as 14.7* min. The koff in assay [4] (read-out: Dissociation rate constant koff) was 0.00113 s⁻¹.
